Test results taken from patent publication US20170166598A1, “HETEROARYL COMPOUNDS FOR KINASE INHIBITION” (ARIAD PHARMACEUTICALS, INC., priority 2014, published 2017).

How the values were obtained:
Assay type in all cases: cell-based
[1] = biological target: T1, human EGFR L858R and T790M double mutation (Homo sapiens, UniProt P00533, L858R/T790M); test: Ba/F3-EGFR L858R/T790M cell anti-proliferative assay (CellTiter 96 MTS, 72 h); conditions: Ba/F3-EGFR L858R/T790M cells
T1 construct: expressed in transfected cells; host or cells: Ba/F3 (murine pro-B) cells transduced with lentivirus from pLVX-IRES puro
T1 sequence (P00533 25-1210 T790M/L858R): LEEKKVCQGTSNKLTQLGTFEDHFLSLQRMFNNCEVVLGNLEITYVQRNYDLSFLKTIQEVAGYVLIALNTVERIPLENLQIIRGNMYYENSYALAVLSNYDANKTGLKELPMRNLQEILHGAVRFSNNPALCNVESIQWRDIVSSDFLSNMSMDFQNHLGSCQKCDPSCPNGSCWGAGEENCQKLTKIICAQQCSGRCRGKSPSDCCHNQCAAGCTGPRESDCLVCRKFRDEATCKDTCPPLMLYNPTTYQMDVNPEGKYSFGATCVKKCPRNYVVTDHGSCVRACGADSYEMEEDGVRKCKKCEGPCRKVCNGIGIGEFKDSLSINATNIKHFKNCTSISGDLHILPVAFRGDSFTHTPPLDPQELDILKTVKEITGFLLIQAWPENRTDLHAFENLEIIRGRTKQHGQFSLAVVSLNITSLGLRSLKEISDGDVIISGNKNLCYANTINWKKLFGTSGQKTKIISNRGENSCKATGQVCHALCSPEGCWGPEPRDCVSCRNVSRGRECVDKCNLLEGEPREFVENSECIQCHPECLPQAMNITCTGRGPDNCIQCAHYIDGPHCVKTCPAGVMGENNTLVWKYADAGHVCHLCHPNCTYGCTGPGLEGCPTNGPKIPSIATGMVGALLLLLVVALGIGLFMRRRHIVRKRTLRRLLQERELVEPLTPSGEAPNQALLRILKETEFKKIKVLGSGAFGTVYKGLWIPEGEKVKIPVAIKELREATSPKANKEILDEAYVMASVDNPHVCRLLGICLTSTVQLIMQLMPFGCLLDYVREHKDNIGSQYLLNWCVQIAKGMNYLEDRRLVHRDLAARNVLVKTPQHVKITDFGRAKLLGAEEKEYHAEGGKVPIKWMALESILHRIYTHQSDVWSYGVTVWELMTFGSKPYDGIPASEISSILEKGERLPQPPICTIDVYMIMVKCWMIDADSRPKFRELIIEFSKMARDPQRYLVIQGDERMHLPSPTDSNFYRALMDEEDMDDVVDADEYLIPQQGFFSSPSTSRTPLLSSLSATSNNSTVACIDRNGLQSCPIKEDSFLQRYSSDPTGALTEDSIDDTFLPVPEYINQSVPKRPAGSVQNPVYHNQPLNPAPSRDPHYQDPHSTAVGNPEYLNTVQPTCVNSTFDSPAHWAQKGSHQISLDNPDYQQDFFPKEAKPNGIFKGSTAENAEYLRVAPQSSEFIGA
Experimental: An expression vector, pLVX-IRES puro (Clontech) coding for human EGFR L858R and T790M double mutation, was transfected into HEK293 cells by the Trans-Lentiviral ORF Packaging System (Thermo Scientific), to produce virus encoding EGFR L858R and T790M double mutations. Ba/F3 (DSMZ) cells maintained in RPMI 1640 medium supplemented with 10% fetal bovine serum, 200 μM L-glutamine/l 200 μg/mL penicillin/200 μg/mL streptomycin (Life Technology) and 10 ng/mL IL-3 (R&D system), were infected by EGFR L858R and T790M double mutation virus and subsequently selected by puromycin (Life Technology) selection and IL-3 depletion. […] The anti-proliferative activity of compounds was determined as follows: BaF3-EGFR L858R/T790M cells seeded in 96 well plates (2500 cells/well) were treated with test compound (dissolved in DMSO) at a series of concentrations (4-fold dilution, top concentration: 10,000 nM). The plates were incubated for 72 h in a 37° C. incubator with 5% CO2, and the number of viable cells in each well were measured indirectly by CellTiter 96® Aqueous One Solution Cell Proliferation Assay (Promega; this assay is a colorimetric method for determining the number of viable cells through measurement of their metabolic activity by detection of enzymatic conversion of tetrazolium salts into blue formazan derivatives). Reagent (20 μL) was added into each well, and the plates were returned to the incubator for 2 h. The absorbance in each well was then measured at 490 nm using an Envision plate reader (Perkin Elmer).

[2] = biological target: T2, Her2 exon 20 YVMA insertion (A775_G776ins YVMA) (Homo sapiens, UniProt P04626, INS775YVMA); test: Ba/F3-Her2 Exon20 YVMA cell anti-proliferative assay (CellTiter 96 MTS, 72 h); conditions: Ba/F3-Her2 Exon20 YVMA cells
T2 construct: expressed in transfected cells; host or cells: Ba/F3 (murine pro-B) cells transduced with lentivirus from pLVX-IRES puro
T2 sequence (P04626 with tags, fused parts or gaps INS775YVMA): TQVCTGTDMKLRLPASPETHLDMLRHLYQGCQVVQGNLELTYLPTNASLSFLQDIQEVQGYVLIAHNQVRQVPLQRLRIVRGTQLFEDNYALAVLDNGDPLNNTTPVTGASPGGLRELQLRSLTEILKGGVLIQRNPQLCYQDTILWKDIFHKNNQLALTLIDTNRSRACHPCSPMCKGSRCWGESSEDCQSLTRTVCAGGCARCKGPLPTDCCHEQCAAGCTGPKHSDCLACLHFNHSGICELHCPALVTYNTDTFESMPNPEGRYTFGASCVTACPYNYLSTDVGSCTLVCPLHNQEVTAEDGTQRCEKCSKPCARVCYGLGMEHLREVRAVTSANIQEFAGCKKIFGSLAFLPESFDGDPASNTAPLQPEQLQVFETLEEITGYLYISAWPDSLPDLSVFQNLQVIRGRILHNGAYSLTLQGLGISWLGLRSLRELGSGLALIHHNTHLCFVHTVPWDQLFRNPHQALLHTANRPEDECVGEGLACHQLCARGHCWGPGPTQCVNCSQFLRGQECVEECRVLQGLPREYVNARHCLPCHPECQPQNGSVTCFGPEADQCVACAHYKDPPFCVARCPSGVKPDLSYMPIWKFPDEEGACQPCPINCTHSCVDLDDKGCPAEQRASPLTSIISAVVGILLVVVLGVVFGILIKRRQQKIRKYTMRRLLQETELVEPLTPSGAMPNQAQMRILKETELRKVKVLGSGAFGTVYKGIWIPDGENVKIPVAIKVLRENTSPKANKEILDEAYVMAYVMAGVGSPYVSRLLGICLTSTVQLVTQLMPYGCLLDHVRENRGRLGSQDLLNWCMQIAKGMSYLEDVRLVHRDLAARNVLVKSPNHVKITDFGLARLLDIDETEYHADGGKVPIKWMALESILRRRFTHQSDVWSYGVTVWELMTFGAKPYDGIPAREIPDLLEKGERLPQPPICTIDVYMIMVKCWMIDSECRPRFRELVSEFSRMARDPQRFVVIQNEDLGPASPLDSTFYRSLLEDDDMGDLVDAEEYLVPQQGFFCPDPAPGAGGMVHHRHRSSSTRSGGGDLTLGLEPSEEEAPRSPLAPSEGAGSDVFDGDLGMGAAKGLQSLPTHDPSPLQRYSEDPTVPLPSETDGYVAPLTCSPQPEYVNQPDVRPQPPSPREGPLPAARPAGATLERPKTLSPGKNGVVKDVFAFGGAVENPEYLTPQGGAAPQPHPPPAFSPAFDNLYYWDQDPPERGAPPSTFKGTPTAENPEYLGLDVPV
Outline: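 Anti-proliferation: compound series (top 10,000 nM, 4-fold steps) was applied to Ba/F3-Her2 Exon20 YVMA cells grown without IL-3 for 72 h. Viability was read colorimetrically (CellTiter 96 Aqueous One, A490, 2 h reagent incubation).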

[3] = biological target: T3, human EGFR exon 20 insertion ASV (V769_D770insASV) (Homo sapiens, UniProt P00533, INS769ASV); test: Ba/F3-EGFR-Exon20-ASV cell anti-proliferative assay (CellTiter 96 MTS, 72 h); conditions: Ba/F3-EGFR-Exon20-ASV cells
T3 construct: expressed in transfected cells; host or cells: Ba/F3 (murine pro-B) cells transduced with lentivirus from pLVX-IRES puro
T3 sequence (P00533 with tags, fused parts or gaps INS769ASV): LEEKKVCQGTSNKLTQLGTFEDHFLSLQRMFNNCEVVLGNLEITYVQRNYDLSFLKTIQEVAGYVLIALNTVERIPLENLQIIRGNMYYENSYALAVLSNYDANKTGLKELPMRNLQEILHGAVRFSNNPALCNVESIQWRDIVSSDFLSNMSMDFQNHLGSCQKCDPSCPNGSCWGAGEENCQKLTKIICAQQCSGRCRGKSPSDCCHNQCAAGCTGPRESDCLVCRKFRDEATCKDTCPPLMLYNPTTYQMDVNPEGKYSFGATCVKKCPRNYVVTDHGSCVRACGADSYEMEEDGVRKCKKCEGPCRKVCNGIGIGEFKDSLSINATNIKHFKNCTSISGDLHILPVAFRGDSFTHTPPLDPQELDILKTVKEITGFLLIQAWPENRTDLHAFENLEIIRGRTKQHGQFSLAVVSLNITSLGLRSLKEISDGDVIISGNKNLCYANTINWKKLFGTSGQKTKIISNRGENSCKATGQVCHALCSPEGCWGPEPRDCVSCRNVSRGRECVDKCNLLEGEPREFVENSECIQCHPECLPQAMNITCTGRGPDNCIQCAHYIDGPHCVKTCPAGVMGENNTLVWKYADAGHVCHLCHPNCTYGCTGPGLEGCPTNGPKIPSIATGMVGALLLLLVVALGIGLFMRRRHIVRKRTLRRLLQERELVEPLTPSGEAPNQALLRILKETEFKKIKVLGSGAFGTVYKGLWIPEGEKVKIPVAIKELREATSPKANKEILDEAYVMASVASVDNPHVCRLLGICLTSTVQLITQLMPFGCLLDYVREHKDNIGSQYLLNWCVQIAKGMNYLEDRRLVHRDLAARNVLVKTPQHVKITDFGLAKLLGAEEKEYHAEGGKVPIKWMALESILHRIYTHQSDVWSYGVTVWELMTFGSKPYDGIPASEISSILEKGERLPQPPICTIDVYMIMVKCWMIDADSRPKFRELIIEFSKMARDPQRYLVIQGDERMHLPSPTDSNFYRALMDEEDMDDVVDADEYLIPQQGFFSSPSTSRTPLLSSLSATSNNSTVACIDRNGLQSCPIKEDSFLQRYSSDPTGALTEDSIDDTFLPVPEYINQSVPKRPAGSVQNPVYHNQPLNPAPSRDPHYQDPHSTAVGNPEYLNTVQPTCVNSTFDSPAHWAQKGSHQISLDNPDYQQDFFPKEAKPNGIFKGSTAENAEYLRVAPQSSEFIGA
Outline: (§1)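 Viable-cell readout used absorbance at 490 nm of MTS-derived formazan, 2 h after reagent addition, following 72 h compound treatment at 37 °C, 5% CO2. Cells: puromycin-selected, IL-3-depleted Ba/F3 expressing EGFR exon 20 ASV or NPG; dosing 4-fold series from 10,000 nM.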

[4] = biological target: T4, human EGFR exon 20 insertion NPG (H773_V774insNPG) (Homo sapiens, UniProt P00533, INS772GNP); test: Ba/F3-EGFR-Exon20-NPG cell anti-proliferative assay (CellTiter 96 MTS, 72 h); conditions: Ba/F3-EGFR-Exon20-NPG cells
T4 construct: expressed in transfected cells; host or cells: Ba/F3 (murine pro-B) cells transduced with lentivirus from pLVX-IRES puro
Outline: as §1

[5] = biological target: T5, human EGFR E746-A750 deletion and T790M Mutation (Homo sapiens, UniProt P00533, DEL746-750/T790M); test: Ba/F3-EGFR-Del/T790M cell anti-proliferative assay (CellTiter 96 MTS, 72 h); conditions: Ba/F3-EGFR-Del/T790M cells
T5 construct: expressed in transfected cells; host or cells: Ba/F3 (murine pro-B) cells transduced with lentivirus from pLVX-IRES puro
T5 sequence (P00533 with tags, fused parts or gaps DEL746-750/T790M): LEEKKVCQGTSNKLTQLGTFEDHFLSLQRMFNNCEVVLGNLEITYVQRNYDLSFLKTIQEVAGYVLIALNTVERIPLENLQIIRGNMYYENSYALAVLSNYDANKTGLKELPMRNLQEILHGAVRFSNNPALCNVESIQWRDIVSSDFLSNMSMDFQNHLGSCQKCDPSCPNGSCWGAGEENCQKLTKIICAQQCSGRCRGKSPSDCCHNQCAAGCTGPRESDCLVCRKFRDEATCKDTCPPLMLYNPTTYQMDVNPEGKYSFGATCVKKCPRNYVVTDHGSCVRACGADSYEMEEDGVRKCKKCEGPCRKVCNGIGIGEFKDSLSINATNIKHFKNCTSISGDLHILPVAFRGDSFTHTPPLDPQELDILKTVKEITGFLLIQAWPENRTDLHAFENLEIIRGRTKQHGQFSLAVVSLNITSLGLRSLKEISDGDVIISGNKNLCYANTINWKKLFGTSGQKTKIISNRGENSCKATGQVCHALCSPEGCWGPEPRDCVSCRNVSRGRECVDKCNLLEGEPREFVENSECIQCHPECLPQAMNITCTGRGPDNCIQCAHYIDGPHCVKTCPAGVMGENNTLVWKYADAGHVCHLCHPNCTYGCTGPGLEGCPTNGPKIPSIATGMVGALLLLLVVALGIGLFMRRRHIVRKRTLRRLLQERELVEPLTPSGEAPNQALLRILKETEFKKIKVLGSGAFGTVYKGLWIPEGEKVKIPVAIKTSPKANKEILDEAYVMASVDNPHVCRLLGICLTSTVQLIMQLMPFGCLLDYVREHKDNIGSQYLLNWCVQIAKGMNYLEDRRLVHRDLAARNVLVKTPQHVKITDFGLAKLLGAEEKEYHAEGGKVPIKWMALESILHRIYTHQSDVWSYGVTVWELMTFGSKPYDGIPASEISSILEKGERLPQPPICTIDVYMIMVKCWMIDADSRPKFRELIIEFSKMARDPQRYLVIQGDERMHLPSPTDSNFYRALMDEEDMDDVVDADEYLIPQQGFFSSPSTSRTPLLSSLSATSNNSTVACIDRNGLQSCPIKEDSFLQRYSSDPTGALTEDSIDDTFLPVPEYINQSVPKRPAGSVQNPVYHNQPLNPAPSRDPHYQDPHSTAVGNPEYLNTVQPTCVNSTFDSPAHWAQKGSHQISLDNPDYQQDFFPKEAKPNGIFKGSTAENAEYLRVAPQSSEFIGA
Outline: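 Compound exposure: 72 h, 37 °C, 4-fold series topping at 10,000 nM. Target cells are Ba/F3 transduced with EGFR exon 19 deletion plus T790M, selected by puromycin and IL-3 withdrawal. Viable cell number inferred from MTS metabolic conversion, A490 read 2 h after reagent addition.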

IC50 [2] [nM] | IC50 [3] [nM] | IC50 [4] [nM] | SMILES | EGFR exon 21 L858R and exon 20 T790M mutation IC50 [1] | EGFR exon 19 deletion and exon 20 T790M mutation IC50 [5]
< 100 | < 100 | < 100 | C=CC(=O)Nc1cc(Nc2ncc(C#N)c(-c3cn4c5c(cccc35)CCC4)n2)c(OC)cc1N(C)CCN(C)C(C)C [Example 26, N-(5-((5-cyano-4-(5,6-dihydro-4H-pyrrolo[3,2,1-ij]quinolin-1-yl)pyrimidin-2-yl)amino)-2-((2-(isopropyl(methyl)amino)ethyl)(methyl)amino)-4-methoxyphenyl)acrylamide] | A (IC50 value for the indicated mutant below about 100 nM) | A (IC50 value for the indicated mutant below about 100 nM)
< 100 | < 100 | < 100 | C=CC(=O)Nc1cc(Nc2ncc(C=C)c(-c3cn4c5c(cccc35)CCC4)n2)c(OC)cc1N(C)CCN(C)C [Example 27, N-(5-((4-(5,6-dihydro-4H-pyrrolo[3,2,1-ij]quinolin-1-yl)-5-vinylpyrimidin-2-yl)amino)-2-((2-(dimethylamino)ethyl)(methyl)amino)-4-methoxyphenyl)acrylamide] | A (IC50 value for the indicated mutant below about 100 nM) | A (IC50 value for the indicated mutant below about 100 nM)
100 to 500 | 100 to 500 | < 100 | C=CC(=O)Nc1cc(Nc2ncc(CCC3CCOC3)c(-c3cn4c5c(cccc35)CCC4)n2)c(OC)cc1N(C)CCN(C)C (stereo not shown) [Example 36, N-(5-((4-(5,6-dihydro-4H-pyrrolo[3,2,1-ij]quinolin-1-yl)-5-(2-(tetrahydrofuran-3-yl)ethyl)pyrimidin-2-yl)amino)-2-((2-(dimethylamino)ethyl)(methyl)amino)-4-methoxyphenyl)acrylamide] | B (IC50 value for the indicated mutant between about 100 to about 500 nM) | A (IC50 value for the indicated mutant below about 100 nM)
100 to 500 | < 100 | < 100 | C=CC(=O)Nc1cc(Nc2ncc(CCC(C)(C)O)c(-c3cn4c5c(cccc35)CCC4)n2)c(OC)cc1N(C)CCN(C)C [Example 37, N-(5-((4-(5,6-dihydro-4H-pyrrolo[3,2,1-ij]quinolin-1-yl)-5-(3-hydroxy-3-methylbutyl)pyrimidin-2-yl)amino)-2-((2-(dimethylamino)ethyl)(methyl)amino)-4-methoxyphenyl)acrylamide] | B (IC50 value for the indicated mutant between about 100 to about 500 nM) | A (IC50 value for the indicated mutant below about 100 nM)
< 100 | < 100 | < 100 | C=CC(=O)Nc1cc(Nc2ncc(CCC(O)CC)c(-c3cn4c5c(cccc35)CCC4)n2)c(OC)cc1N(C)CCN(C)C (stereo not shown) [Example 38, N-(5-((4-(5,6-dihydro-4H-pyrrolo[3,2,1-ij]quinolin-1-yl)-5-(3-hydroxypentyl)pyrimidin-2-yl)amino)-2-((2-(dimethylamino)ethyl)(methyl)amino)-4-methoxyphenyl)acrylamide] | A (IC50 value for the indicated mutant below about 100 nM) | A (IC50 value for the indicated mutant below about 100 nM)
> 1000 | 500 to 1000 | 100 to 500 | C=CC(=O)Nc1cc(Nc2ncc(CCC(N)=O)c(-c3cn4c5c(cccc35)CCC4)n2)c(OC)cc1N(C)CCN(C)C [Example 40, N-(5-((5-(3-amino-3-oxopropyl)-4-(5,6-dihydro-4H-pyrrolo[3,2,1-ij]quinolin-1-yl)pyrimidin-2-yl)amino)-2-((2-(dimethylamino)ethyl)(methyl)amino)-4-methoxyphenyl)acrylamide] | B (IC50 value for the indicated mutant between about 100 to about 500 nM) | A (IC50 value for the indicated mutant below about 100 nM)
100 to 500 | < 100 | < 100 | C=CC(=O)Nc1cc(Nc2ncc(C(N)=O)c(-c3cn4c5c(cccc35)CCC4)n2)c(OC)cc1N(C)CCN(C)C [Example 46, 2-((5-acrylamido-4-((2-(dimethylamino)ethyl)(methyl)amino)-2-methoxyphenyl)amino)-4-(5,6-dihydro-4H-pyrrolo[3,2,1-ij]quinolin-1-yl)pyrimidin-5-carboxamide] | A (IC50 value for the indicated mutant below about 100 nM) | A (IC50 value for the indicated mutant below about 100 nM)
500 to 1000 | 100 to 500 | < 100 | C=CC(=O)Nc1cc(Nc2ncc(C(=O)NCCOC)c(-c3cn4c5c(cccc35)CCC4)n2)c(OC)cc1N(C)CCN(C)C [Example 47, 2-((5-acrylamido-4-((2-(dimethylamino)ethyl)(methyl)amino)-2-methoxyphenyl)amino)-4-(5,6-dihydro-4H-pyrrolo[3,2,1-ij]quinolin--yl)-N-(2-methoxyethyl)pyrimidine-5-carboxamide] | C (IC50 value for the indicated mutant between greater than about 500 to about 1 μM) | B (IC50 value for the indicated mutant between about 100 to about 500 nM)
> 1000 | 500 to 1000 | < 100 | C=CC(=O)Nc1cc(Nc2ncc(C(=O)NCCO)c(-c3cn4c5c(cccc35)CCC4)n2)c(OC)cc1N(C)CCN(C)C [Example 48] | C (IC50 value for the indicated mutant between greater than about 500 to about 1 μM) | B (IC50 value for the indicated mutant between about 100 to about 500 nM)
100 to 500 | < 100 | < 100 | C=CC(=O)Nc1cc(Nc2ncc(Cl)c(-c3cn4c5c(cccc35)OCC4)n2)c(OC)cc1N(C)CCN(C)C [Example 76, N-(5-((5-chloro-4-(2,3-dihydro-[1,4]oxazino[2,3,4-hi]indol-6-yl)pyrimidin-2-yl)amino)-2-((2-(dimethylamino)ethyl)(methyl)amino)-4-methoxyphenyl)acrylamide] | A (IC50 value for the indicated mutant below about 100 nM) | A (IC50 value for the indicated mutant below about 100 nM)
100 to 500 | 100 to 500 | < 100 | C=CC(=O)Nc1cc(Nc2nccc(-c3cn4c5c(cccc35)CCC4)n2)c(OC)cc1N(C)CCNC [Example 83, N-(5-((4-(5,6-dihydro-4H-pyrrolo[3,2,1-ij]quinolin-1-yl)pyrimidin-2-yl)amino)-4-methoxy-2-(methyl(2-(methylamino)ethyl)amino)phenyl)acrylamide] | A (IC50 value for the indicated mutant below about 100 nM) | A (IC50 value for the indicated mutant below about 100 nM)
